Like-named read-outs stand apart in the source and are kept apart here. Peptide text beside a SMILES is read from it. * marks the point of attachment. FITC = O=C1OC2(c3ccc(O)cc3Oc3cc(O)ccc32)c2ccc(NC(=S)*)cc21; Farnesyl = CC(C)=CCC/C(C)=C/CC/C(C)=C/C*
Legend:
[1] = test system: PDE6δ/farnesylated peptide complex; assay: Fluorescence polarization release of farnesylated peptide from PDE6δ by Arl proteins; assay type: biochemical
Text: Towards an explanation for the possible sorting mechanism that leaves some PDE6δ-cargo in the cell body but allows others to be enriched in the cilia we turned to the release activities of Arl2 and Arl3. […] While Arl2 is a non-ciliary protein, Arl3 localizes along the length of the cilium. Using fluorescence polarization, we measured the release of INPP5E and Rheb peptides from PDE6δ by the addition of Arl2 or Arl3 bound to the non-hydrolysable GTP analogue GppNHp. […] To compare the cargo release kinetics of Arl2·GppNHp and Arl3·GppNHp, we measured the dissociation rate constants of INPP5E and Rheb peptides from PDE6δ in the presence and absence of Arl3·GppNHp or Arl2·GppNHp, by adding a large excess of unlabelled peptide to silence the back reaction. […]
Figure 2 INPP5E release from PDE6δ by Arl2·GppNHp and Arl3·GppNHp. (a) Fluorescence polarization measurements of 0.5 μM FITC-labelled Rheb peptide followed by addition of 0.5 μM PDE6δ and the addition of 5 μM Arl2·GppNHp or Arl3·GppNHp (arrow). (b) Fluorescence polarization measurements of 0.2 μM TAMRA-labelled INPP5E peptide followed by the addition of 0.2 μM PDE6δ (arrow) and 5 μM Arl2·GppNHp or Arl3·GppNHp (arrow). […]
(§1) All fluorescence polarization measurements were performed at 20 °C in a buffer containing 25 mM Tris-HCl (pH 7.5), 50 mM NaCl and 3 mM DTE. […]
Arl3•GTP. Fluorescence polarization measurements of 0.2 µM TAMRA-labeled […]

[2] = test system: PDE6δ; assay: Stopped-flow fluorescence polarization, dissociation of peptides from PDE6δ with and without Arl2/Arl3·GppNHp; assay type: binding; settings: 1 μM PDE6δ, 0.2 μM labelled peptide, 100-fold excess unlabelled peptide, 20 °C, ± s.d., n=4
Text: Towards an explanation for the possible sorting mechanism that leaves some PDE6δ-cargo in the cell body but allows others to be enriched in the cilia we turned to the release activities of Arl2 and Arl3. […] While Arl2 is a non-ciliary protein, Arl3 localizes along the length of the cilium. Using fluorescence polarization, we measured the release of INPP5E and Rheb peptides from PDE6δ by the addition of Arl2 or Arl3 bound to the non-hydrolysable GTP analogue GppNHp. […] To compare the cargo release kinetics of Arl2·GppNHp and Arl3·GppNHp, we measured the dissociation rate constants of INPP5E and Rheb peptides from PDE6δ in the presence and absence of Arl3·GppNHp or Arl2·GppNHp, by adding a large excess of unlabelled peptide to silence the back reaction. […] The presence of Arl3·GppNHp or Arl2·GppNHp has a similar acceleration effect on the dissociation rate of Rheb peptide from PDE6δ (koff=27.2±0.7 and 15.3±0.3 s^−1, respectively, ±indicates s.d., n=4) (Fig. 2c,d).
Figure 2 INPP5E release from PDE6δ by Arl2·GppNHp and Arl3·GppNHp. (a) Fluorescence polarization measurements of 0.5 μM FITC-labelled Rheb peptide followed by addition of 0.5 μM PDE6δ and the addition of 5 μM Arl2·GppNHp or Arl3·GppNHp (arrow). (b) Fluorescence polarization measurements of 0.2 μM TAMRA-labelled INPP5E peptide followed by the addition of 0.2 μM PDE6δ (arrow) and 5 μM Arl2·GppNHp or Arl3·GppNHp (arrow). (c–f) Stopped-flow fluorescence polarization kinetic experiment where complexes of 1 μM PDE6δ with either 0.2 μM of FITC-labelled Rheb peptide (c,d) or TAMRA-labelled farnesylated INPP5E peptide (e,f) were mixed with 100-fold excess of unlabelled peptide and 10 μM of Arl2 (c,e) or Arl3 (d,f) as indicated.
as §1

[3] = test system: PDE6δ; assay: Stopped-flow fluorescence polarization kinetics of mantGppNHp-loaded Arl proteins with PDE6δ; assay type: binding; settings: for association rate constant kon with PDE6δ: 0.2 μM mantGppNHp-loaded Arl protein, increasing PDE6δ; for association rate constant kon with PDE6δ / dissociation rate constant koff from PDE6δ: 20 °C; for association rate constant kon with PDE6δ / dissociation rate constant koff from PDE6δ / Kd: n=4; for dissociation rate constant koff from PDE6δ: 2 μM PDE6δ with 0.2 μM mantGppNHp-loaded Arl protein, 200-fold excess unlabelled Arl protein; for Kd: calculated from kinetic constants, ± s.d., read-out: equilibrium dissociation constant Kd with PDE6δ (Kd=koff/kon)
Protocol: Previously we have shown that the N-terminal helix of Arl3 is important to release myristoylated cargo from a complex with the shuttle factor UNC119 (ref. [30]). To find out whether the N-terminus of Arl3 and/or Arl2 has a similar if any role in the interaction with PDE6δ, fluorescence polarization measurements using full-length Arl3 (Arl3^fl) or an N-terminal truncated form (Arl3^ΔN) were performed. […] To investigate the role of the N-terminal helix of Arl3 in the release mechanism, we measured association and dissociation rate constants to determine the affinity of PDE6δ towards Arl2 and Arl3 in both full-length and N-terminal truncated forms. Association rate constants between the four proteins Arl3^fl, Arl3^ΔN, Arl2^fl and Arl2^ΔN are rather similar although association is almost twice as fast for full-length Arl3 as compared with Arl2 (Fig. 3a,b). […] The Kd values for Arl2^fl and Arl3^fl differ from previously determined values, likely because of the different techniques used.
Figure 3 Contribution of the N-terminal helix of Arl3 to the binding affinity with PDE6δ. (a) Stopped-flow fluorescence polarization kinetic measurements of the association of 0.2 μM mantGppNHp loaded Arl proteins with increasing concentrations of PDE6δ. The observed pseudo-first order rate constants (kobs) are plotted against PDE6δ concentration. (b) Bar charts of the association rate constants (kon) determined in a. (c,d) Stopped-flow fluorescence polarization kinetic experiments where complexes of 2 μM PDE6δ with 0.2 μM of full-length (Arl^fl) or N-terminally deleted (Arl^ΔN) mantGppNHp loaded Arl proteins as indicated were mixed with 200-fold excess of unlabelled Arl proteins to determine koff. (e) Bar charts of the dissociation rate constants (koff) from experiments in c,d. (f) Bar charts of the equilibrium dissociation constants (Kd) of complexes between PDE6δ and Arl proteins as determined from the kinetic constants in c,e. Error bars indicate s.d., n=4. TEXT PRINTED IN THE PICTURE: (b) Arl3^fl: kon (μM^-1s^-1): 5.97 | (b) Arl3^ΔN: kon (μM^-1s^-1): 4.25 | (b) Arl2^fl: kon (μM^-1s^-1): 2.25 | (b) Arl2^ΔN: kon (μM^-1s^-1): 3.09 | (e) Arl3^fl: koff (s^-1): 0.035 | (e) Arl3^ΔN: koff (s^-1): 0.92 | (e) Arl2^fl: koff (s^-1): 0.33 | (e) Arl2^ΔN: koff (s^-1): 0.98 | (f) Arl3^fl: kd (nM): 5.84 | (f) Arl3^ΔN: kd (nM): 217 | (f) Arl2^fl: kd (nM): 149 | (f) Arl2^ΔN: kd (nM): 319
All fluorescence polarization measurements were performed at 20 °C in a buffer containing 25 mM Tris-HCl (pH 7.5), 50 mM NaCl and 3 mM DTE. For the titration measurement, data were recorded with Fluoromax-4 spectrophotometer (HORIBA Jobin Yvon, Munich, Germany) with excitation and emission wavelengths at 530 and 580 nm for TAMRA-labelled INPP5E peptide and at 495 and 520 nm for fluorescein-labelled Rheb peptide. The kinetic measurements were monitored by a stopped-flow apparatus (Applied Photophysics) in the polarization mode using an excitation wavelength of 366 nm and filter with 420 nm cutoff for mantGppNHp bound Arl protein, excitation wavelength of 495 nm and filter with 520 nm cutoff for fluorescein-labelled Rheb peptide and excitation wavelength of 530 nm and filter with 570 nm cutoff for TAMRA-labelled INPP5E peptide. Data analysis was done with GraFit 5.0 program (Erithracus Software). Concentrations used for each experiment are indicated in the corresponding figure legend.

| Kd ([3]; listed as Arl3^ΔN) [nM] | Kd [3] [nM] | Compound | release of peptide from PDE6δ by Arl2·GppNHp or Arl3·GppNHp ([1]; 0.5 μM FITC-Rheb peptide + 0.5 μM PDE6δ or 0.2 μM TAMRA-INPP5E peptide + 0.2 μM PDE6δ, 5 μM Arl·GppNHp) | koff from PDE6δ in presence of Arl2·GppNHp ([2]; 10 μM Arl2·GppNHp) [s⁻¹] | koff from PDE6δ in presence of Arl3·GppNHp ([2]; 10 μM Arl3·GppNHp) [s⁻¹] | intrinsic dissociation rate koff from PDE6δ ([2]; absence of Arl2/3) [s⁻¹] | release of INPP5E peptide from PDE6δ by Arl3 form ([1]; 0.2 μM TAMRA-labelled INPP5E peptide, 0.2 μM PDE6δ, 5 μM Arl3fl or Arl3ΔN) | association rate constant kon with PDE6δ [3] [M⁻¹ s⁻¹] | association rate constant kon with PDE6δ ([3]; listed as Arl3^ΔN) [M⁻¹ s⁻¹] | dissociation rate constant koff from PDE6δ [3] [s⁻¹] | dissociation rate constant koff from PDE6δ ([3]; listed as Arl3^ΔN) [s⁻¹] | increase of affinity to PDE6δ by the N-terminal helix ([3]; Arl3 full-length versus ΔN) [fold] |
| --- | --- | --- | --- | --- | --- | --- | --- | --- | --- | --- | --- | --- |
| – | – | COC(=O)[C@H](CSC/C=C(\C)CC/C=C(\C)CCC=C(C)C)NC(=O)[C@H](CO)NC(=O)[C@H](CO)NC(=O)[C@H](CCCCN)NC(=O)CNC(=O)[C@H](CCC(N)=O)NC(=O)[C@H](CO)NC(=S)Nc1ccc2c(c1)C(=O)OC21c2ccc(O)cc2Oc2cc(O)ccc21 [Rheb peptide] ({FITC}-SQGKSSC(Farnesyl)-OMe; N-terminus and C-terminus assumed) | can be released by both Arl2·GppNHp and Arl3·GppNHp | 15.3 ± 0.3 | 27.2 ± 0.7 | 0.95 ± 0.004 | – | – | – | – | – | – |
| 217 ± 4.3 | 5.84 | Arl3^fl: full-length Arl3, GppNHp or mantGppNHp loaded | – | – | – | – | unable to release the INPP5E peptide | 5.97e+06 | 4.25e+06 | 0.035 | 0.92 | 37 |

From publication PMC5512577, “PDE6δ-mediated sorting of INPP5E into the cilium is determined by cargo-carrier affinity” (Nature Communications, 2016)
